# Measured values published in patent US10174024B2, “5H-pyrido[3,2-B]indole compounds as anticancer agents” (BRISTOL-MYERS SQUIBB COMPANY, priority 2015, dated 2019).
# Target: BRD4 (Homo sapiens, UniProt O60885)
# Experiment: Time Resolved Fluorescence Resonance Energy Transfer (TR-FRET) binding assay, FRET BRD4
# Conditions: one of the FRET assays described (BRD4 bromodomain construct not specified); read-out: FRET BRD4 IC50
row,Molecule,IC50 [nM]
1,"4-{5-[(3-Fluoropyridin-2-yl)(oxan-4-yl)methyl]-3-[4-(^2H3)methyl-1-methyl-1H-1,2,3-triazol-5-yl]-5H-pyrido[3,2-b]indol-7-yl}-1λ^6,4-thiomorpholine-1,1-dione [Example 68]",< 5
2,"Cc1nnn(C)c1-c1cnc2c3ccc(-c4ccnn4C)cc3n([C@H](c3ccccc3)C3CCOCC3)c2c1 [Example 1, 1,4-Dimethyl-5-[7-(1-methyl-1H-pyrazol-5-yl)-5-[(S)-oxan-4-yl(phenyl)methyl]-5H-pyrido[3,2-b]indol-3-yl]-1H-1,2,3-triazole]",< 5
3,"[2H]C([2H])([2H])c1nnn(C)c1-c1cnc2c3ccc(C4(C)COC(=O)N4)c(F)c3n([C@H](c3ccccc3)C3CCOCC3)c2c1 (stereo partly drawn) [Example 55, 4-{6-Fluoro-3-[4-(^2H3)methyl-1-methyl-1H-1,2,3-triazol-5-yl]-5-[(S)-oxan-4-yl(phenyl)methyl]-5H-pyrido[3,2-b]indol-7-yl}-4-methyl-1,3-oxazolidin-2-one]",< 1
4,"[2H]C([2H])([2H])c1nnn(C)c1-c1cnc2c3ccc(N4CCCS4(=O)=O)c(F)c3n([C@H](c3ccccc3)C3CCOCC3)c2c1 [Example 58, 2-{6-Fluoro-3-[4-(^2H3)methyl-1-methyl-1H-1,2,3-triazol-5-yl]-5-[(S)-oxan-4-yl(phenyl)methyl]-5H-pyrido[3,2-b]indol-7-yl}-1λ^6,2-thiazolidine-1,1-dione]",< 1
5,"Cc1nnn(C)c1-c1cnc2c3ccc(C4(C)CNC(=O)O4)cc3n([C@H](c3ccccc3)C3CCOCC3)c2c1 (single isomer, unassigned) [Example 9]",< 5
6,"CC(=O)OCC(=O)N1CCN(c2ccc3c(c2)c2ncc(-c4c(C)nnn4C)cc2n3[C@H](c2ccccc2)C2CCOCC2)CC1 [Example 14, 2-{4-[3-(Dimethyl-1H-1,2,3-triazol-5-yl)-5-[(S)-oxan-4-yl(phenyl)methyl]-5H-pyrido[3,2-b]indol-8-yl]piperazin-1-yl}-2-oxoethyl acetate]",< 5
7,"[2H]C([2H])([2H])c1nnn(C)c1-c1cnc2c3c(N4CCS(=O)(=O)CC4)ccc(S(C)(=O)=O)c3n([C@H](c3ccccc3)C3CCOCC3)c2c1 [Example 24, 4-{6-Methanesulfonyl-3-[4-(^2H3)methyl-1-methyl-1H-1,2,3-triazol-5-yl]-5-[(S)-oxan-4-yl(phenyl)methyl]-5H-pyrido[3,2-b]indol-9-yl}-1λ^6-thiomorpholine-1,1-dione]",< 5
8,"COc1nnn(C)c1-c1ccc2c3ncc(-c4c(OC)nnn4C)cc3n([C@H](c3ccccc3)C3CCOCC3)c2c1 [Example 32, 4-Methoxy-5-[7-(4-methoxy-1-methyl-1H-1,2,3-triazol-5-yl)-5-[(S)-oxan-4-yl(phenyl)methyl]-5H-pyrido[3,2-b]indol-3-yl]-1-methyl-1H-1,2,3-triazole]",< 1
9,"[2H]C([2H])([2H])c1nnn(C)c1-c1cnc2c3cc(N4CCS(=O)(=O)[C@@H](C)C4)ccc3n([C@H](c3ccccc3F)C3CCOCC3)c2c1 [Example 52, (2S)-4-{5-[(S)-(2-Fluorophenyl)(oxan-4-yl)methyl]-3-[4-(^2H3)methyl-1-methyl-1H-1,2,3-triazol-5-yl]-5H-pyrido[3,2-b]indol-8-yl}-2-methyl-11λ^6,4-thiomorpholine-1,1-dione]",< 1
10,"[2H]C([2H])([2H])c1nnn(C)c1-c1cnc2c3ccc(N4CCCS4(=O)=O)c(F)c3n([C@H](c3ncccc3F)C3CCOCC3)c2c1 [Example 61, 2-{6-Fluoro-5-[(S)-(3-fluoropyridin-2-yl)(oxan-4-yl)methyl]-3-[4-(^2H3)methyl-1-methyl-1H-1,2,3-triazol-5-yl]-5H-pyrido[3,2-b]indol-7-yl}-1λ^6,2-thiazolidine-1,1-dione]",< 5
11,"[2H]C([2H])([2H])c1nnn(C)c1-c1cnc2c3cc(N4CCc5ccccc5C4)ccc3n([C@H](c3ccc(F)cc3)C3CCOCC3)c2c1 [Example 43, 2-{5-[(S)-(4-Fluorophenyl)(oxan-4-yl)methyl]-3-[4-(^2H3)methyl-1-methyl-1H-1,2,3-triazol-5-yl]-5H-pyrido[3,2-b]indol-8-yl}-1,2,3,4-tetrahydroisoquinoline]",< 5
12,"Cc1nnn(C)c1-c1cnc2c3ccc(N4CCC(C(F)(F)F)CC4)cc3n([C@H](c3ccccc3)C3CCOCC3)c2c1 [Example 72, 1-[3-(Dimethyl-1H-1,2,3-triazol-5-yl)-5-[(S)-oxan-4-yl(phenyl)methyl]-5H-pyrido[3,2-b]indol-7-yl]-4-(trifluoromethyl)piperidine]",< 1
13,"Cc1nnn(C)c1-c1cnc2c3ccc(-c4ccon4)cc3n([C@H](c3ccccc3)C3CCOCC3)c2c1 [Example 2, 1,4-Dimethyl-5-{5-[(S)-oxan-4-yl(phenyl)methyl]-7-(1,2-oxazol-3-yl)-5H-pyrido[3,2-b]indol-3-yl}-1H-1,2,3-triazole]",< 5
14,"[2H]C([2H])([2H])c1nnn(C)c1-c1cnc2c3c(N4CCCS4(=O)=O)ccc(S(C)(=O)=O)c3n(C(c3ncccc3F)C3CCOCC3)c2c1 (stereo not drawn) [Example 36, 2-{5-[(3-Fluoropyridin-2-yl)(oxan-4-yl)methyl]-6-methanesulfonyl-3-[4-(^2H3)methyl-1-methyl-1H-1,2,3-triazol-5-yl]-5H-pyrido[3,2-b]indol-9-yl}-1λ^6,2-thiazolidine-1,1-dione]",< 1500
15,"Cc1nnn(C)c1-c1cnc2c3ccc(C4(C)CNC(=O)O4)cc3n([C@H](c3ccccc3)C3CCOCC3)c2c1 (single isomer, unassigned) [Example 10]",< 5
16,"[2H]C([2H])([2H])c1nnn(C)c1-c1cnc2c3ccc(N4CCNC4=O)c(F)c3n([C@H](c3ccccc3)C3CCOCC3)c2c1 [Example 59, 1-{6-Fluoro-3-[4-(^2H3)methyl-1-methyl-1H-1,2,3-triazol-5-yl]-5-[(S)-oxan-4-yl(phenyl)methyl]-5H-pyrido[3,2-b]indol-7-yl}imidazolidin-2-one]",< 5
17,"[2H]C([2H])([2H])c1nnn(C)c1-c1cnc2c3ccc(N4CCCC4=O)c(F)c3n([C@H](c3ccccc3)C3CCOCC3)c2c1 [Example 57, 1-{6-Fluoro-3-[4-(^2H3)methyl-1-methyl-1H-1,2,3-triazol-5-yl]-5-[(S)-oxan-4-yl(phenyl)methyl]-5H-pyrido[3,2-b]indol-7-yl}pyrrolidin-2-one]",< 1
18,"Cc1nnn(C)c1-c1cnc2c3c(N4CCN(C5COC5)CC4)ccc(S(C)(=O)=O)c3n([C@H](c3ccccc3)C3CCOCC3)c2c1 [Example 23, 1-[3-(Dimethyl-1H-1,2,3-triazol-5-yl)-6-methanesulfonyl-5-[(S)-oxan-4-yl(phenyl)methyl]-5H-pyrido[3,2-b]indol-9-yl]-4-(oxetan-3-yl)piperazine]",< 5
19,"Cc1nnn(C)c1-c1cnc2c3cc(C4CCNCC4)ccc3n([C@H](c3ccccc3)C3CCOCC3)c2c1 [Example 4, 4-[3-(Dimethyl-1H-1,2,3-triazol-5-yl)-5-[(S)-oxan-4-yl(phenyl)methyl]-5H-pyrido[3,2-b]indol-8-yl]piperidine]",< 1
20,"[2H]C([2H])([2H])c1nnn(C)c1-c1cnc2c3ccc(N4CCS(=O)(=O)CC4)cc3n([C@H](c3ccccc3)C3CCOCC3)c2c1 [Example 45, 4-{3-[4-(^2H3)Methyl-1-methyl-1H-1,2,3-triazol-5-yl]-5-[(S)-oxan-4-yl(phenyl)methyl]-5H-pyrido[3,2-b]indol-7-yl}-1λ^6-thiomorpholine-1,1-dione]",< 5
21,"[2H]C([2H])([2H])n1nnc(OC)c1-c1ccc2c3ncc(-c4c(OC)nnn4C([2H])([2H])[2H])cc3n([C@H](c3ccccc3)C3CCOCC3)c2c1 [Example 30, 4-Methoxy-5-{7-[4-methoxy-1-(^2H3)methyl-1H-1,2,3-triazol-5-yl]-5-[(S)-oxan-4-yl(phenyl)-methyl]-5H-pyrido[3,2-b]indol-3-yl}-1-(^2H3)methyl-1H-1,2,3-triazole]",< 5
22,"[2H]C([2H])([2H])c1nnn(C)c1-c1cnc2c3ccc(N4CCS(=O)(=O)CC4)cc3n(C(c3ncccc3F)C3CCOCC3)c2c1 (stereo not drawn) [Example 67, 4-{5-[(3-Fluoropyridin-2-yl)(oxan-4-yl)methyl]-3-[4-(^2H3)methyl-1-methyl-1H-1,2,3-triazol-5-yl]-5H-pyrido[3,2-b]indol-7-yl}-1λ^6,4-thiomorpholine-1,1-dione]",< 5
23,"[2H]C([2H])([2H])c1nnn(C)c1-c1cnc2c3c(N4CCCS4(=O)=O)ccc(S(C)(=O)=O)c3n(C(c3ncccc3F)C3CCOCC3)c2c1 (stereo not drawn) [Example 35, 2-{5-[(3-Fluoropyridin-2-yl)(oxan-4-yl)methyl]-6-methanesulfonyl-3-[4-(^2H3)methyl-1-methyl-1H-1,2,3-triazol-5-yl]-5H-pyrido[3,2-b]indol-9-yl}-1λ^6,2-thiazolidine-1,1-dione]",< 1
24,"[2H]C([2H])([2H])c1nnn(C)c1-c1ccc2c3ncc(-c4c(C([2H])([2H])[2H])nnn4C)cc3n([C@H](c3ccccc3)C3CCOCC3)c2c1 [Example 31, 4-(^2H3)Methyl-1-methyl-5-{7-[4-(^2H3)methyl-1-methyl-1H-1,2,3-triazol-5-yl]-5-[(S)-oxan-4-yl(phenyl)methyl]-5H-pyrido[3,2-b]indol-3-yl}-1H-1,2,3-triazole]",< 1
25,"Cc1noc(C)c1-c1cnc2c3cc(C4CCN(C(=O)CO)CC4)ccc3n([C@H](c3ccccc3)C3CCOCC3)c2c1 [Example 6, 1-{4-[3-(Dimethyl-1,2-oxazol-4-yl)-5-[(S)-oxan-4-yl(phenyl)methyl]-5H-pyrido[3,2-b]indol-8-yl]piperidin-1-yl}-2-hydroxyethan-1-one]",< 5
26,"[2H]C([2H])([2H])c1nnn(C)c1-c1cnc2c3ccc(C4(O)CCOCC4)c(F)c3n([C@H](c3ccccc3)C3CCOCC3)c2c1 [Example 62, 4-{6-Fluoro-3-[4-(^2H3)methyl-1-methyl-1H-1,2,3-triazol-5-yl]-5-[(S)-oxan-4-yl(phenyl)methyl]-5H-pyrido[3,2-b]indol-7-yl}oxan-4-ol]",< 1
27,"[2H]C([2H])([2H])c1nnn(C)c1-c1cnc2c3cc(N4CCS(=O)(=O)CC4)ccc3n([C@H](c3ccc(F)cc3)C3CCOCC3)c2c1 [Example 39, 4-{5-[(S)-(4-Fluorophenyl)(oxan-4-yl)methyl]-3-[4-(^2H3)methyl-1-methyl-1H-1,2,3-triazol-5-yl]-5H-pyrido[3,2-b]indol-8-yl}-1λ^6-thiomorpholine-1,1-dione]",< 5
